Laboratory results taken from PubChem BioAssay AID2060882 (Molecular Pharmacology Branch, DTP, NCI, 2025).

Tested on: 898857-211-R-J1-PDC complex spheroids, growth % test/control
Experiment: Anticancer human tumor 898857-211-R-J1-PDC patient-derived melanoma cell line growth inhibition [RAS]
Details: for IC50: curve of first compound; for viability, T/C: stronger effect = lower value
Method in brief: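 Multi-cell-type spheroids: tumor cells plus HUVEC endothelial cells and mesenchymal stem cells. RAS-pathway inhibitors were combined with targeted agents, each dosed in half-log steps down from clinical Cmax, or from 10 microM when Cmax was unknown.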
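Also: spheroids exposed to compound for seven days before readout.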
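For viability, T/C in this document: 100% = DMSO vehicle control wells.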

SMILES: Nc1ccn(C2OC(CO)C(O)C2(F)F)c(=O)n1 (configuration not stated) + C=CC(=O)N1CCN(c2nc(OCC3CCCN3C)nc3c(F)c(-c4nc(N)cc(C)c4C(F)(F)F)c(Cl)cc23)C(C)C1
- IC50 (second compound 0.00316 µM): 7.89 nM
- IC50 (second compound 0.01 µM): 7.24 nM
- IC50 (second compound 0.0316 µM): 7.1 nM
- IC50 (second compound 0.1 µM): 6.99 nM
- IC50 (second compound 0.316 µM): 7.3 nM
- IC50 (second compound 1 µM): 6.89 nM
- viability, T/C (second compound 0.00316 µM, first compound 0.00316 µM): 110%
- viability, T/C (second compound 0.00316 µM, first compound 0.01 µM): 34.5%
- viability, T/C (second compound 0.00316 µM, first compound 0.0316 µM): 6.39%
- viability, T/C (second compound 0.00316 µM, first compound 0.1 µM): 4.85%
- viability, T/C (second compound 0.00316 µM, first compound 0.316 µM): 5.1%
- viability, T/C (second compound 0.00316 µM, first compound 1 µM): 4.69%
- viability, T/C (second compound 0.01 µM, first compound 0.00316 µM): 107%
- viability, T/C (second compound 0.01 µM, first compound 0.01 µM): 27.9%
- viability, T/C (second compound 0.01 µM, first compound 0.0316 µM): 5.64%
- viability, T/C (second compound 0.01 µM, first compound 0.1 µM): 4.72%
- viability, T/C (second compound 0.01 µM, first compound 0.316 µM): 4.8%
- viability, T/C (second compound 0.01 µM, first compound 1 µM): 4.83%
- viability, T/C (second compound 0.0316 µM, first compound 0.00316 µM): 103%
- viability, T/C (second compound 0.0316 µM, first compound 0.01 µM): 27.9%
- viability, T/C (second compound 0.0316 µM, first compound 0.0316 µM): 7.07%
- viability, T/C (second compound 0.0316 µM, first compound 0.1 µM): 5.22%
- viability, T/C (second compound 0.0316 µM, first compound 0.316 µM): 4.65%
- viability, T/C (second compound 0.0316 µM, first compound 1 µM): 4.83%
- viability, T/C (second compound 0.1 µM, first compound 0.00316 µM): 96%
- viability, T/C (second compound 0.1 µM, first compound 0.01 µM): 29.2%
- viability, T/C (second compound 0.1 µM, first compound 0.0316 µM): 6.93%
- viability, T/C (second compound 0.1 µM, first compound 0.1 µM): 4.35%
- viability, T/C (second compound 0.1 µM, first compound 0.316 µM): 4.72%
- viability, T/C (second compound 0.1 µM, first compound 1 µM): 4.89%
- viability, T/C (second compound 0.316 µM, first compound 0.00316 µM): 103%
- viability, T/C (second compound 0.316 µM, first compound 0.01 µM): 30.1%
- viability, T/C (second compound 0.316 µM, first compound 0.0316 µM): 6.17%
- viability, T/C (second compound 0.316 µM, first compound 0.1 µM): 5.08%
- viability, T/C (second compound 0.316 µM, first compound 0.316 µM): 5.71%
- viability, T/C (second compound 0.316 µM, first compound 1 µM): 4.45%
- viability, T/C (second compound 1 µM, first compound 0.00316 µM): 104%
- viability, T/C (second compound 1 µM, first compound 0.01 µM): 24%
- viability, T/C (second compound 1 µM, first compound 0.0316 µM): 8.63%
- viability, T/C (second compound 1 µM, first compound 0.1 µM): 5.29%
- viability, T/C (second compound 1 µM, first compound 0.316 µM): 6.52%
- viability, T/C (second compound 1 µM, first compound 1 µM): 5.69%
